Test [1] deals with T1, Aldo-keto reductase family 1 member C2 (Homo sapiens, UniProt P52895).
T1 sequence (P52895 whole entry): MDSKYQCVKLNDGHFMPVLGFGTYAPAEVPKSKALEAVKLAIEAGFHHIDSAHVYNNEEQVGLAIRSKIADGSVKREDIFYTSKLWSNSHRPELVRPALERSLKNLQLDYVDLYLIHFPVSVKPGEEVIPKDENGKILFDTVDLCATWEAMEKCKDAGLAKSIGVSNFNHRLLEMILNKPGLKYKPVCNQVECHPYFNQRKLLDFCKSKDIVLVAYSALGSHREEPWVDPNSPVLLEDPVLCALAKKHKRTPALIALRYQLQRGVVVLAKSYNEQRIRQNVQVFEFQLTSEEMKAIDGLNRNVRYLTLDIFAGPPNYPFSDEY
The test can be described thus: Inhibition of human AKR1C2 using S-tetralol as substrate in presence of NADP by fluorescence method.

Test [2] addresses T2, Aldo-keto reductase family 1 member C3 (Homo sapiens, UniProt P42330).
T2 sequence (P42330 whole entry): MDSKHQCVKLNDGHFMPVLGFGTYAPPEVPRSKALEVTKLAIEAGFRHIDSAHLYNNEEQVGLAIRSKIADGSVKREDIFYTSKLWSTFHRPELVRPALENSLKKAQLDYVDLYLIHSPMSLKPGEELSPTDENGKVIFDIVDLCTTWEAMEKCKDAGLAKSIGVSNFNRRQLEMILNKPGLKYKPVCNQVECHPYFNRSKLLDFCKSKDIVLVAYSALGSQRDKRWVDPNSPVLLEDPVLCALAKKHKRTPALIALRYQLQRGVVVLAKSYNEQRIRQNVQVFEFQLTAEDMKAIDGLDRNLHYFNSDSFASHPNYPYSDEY
Description: Inhibition of human AKR1C3 using S-tetralol as substrate in presence of NADP by fluorescence method.

The target in test [3] is T3, Aldo-keto reductase family 1 member C1 (Homo sapiens, UniProt Q04828).
T3 sequence (Q04828 whole entry): T1 sequence (P52895 whole entry) with V38T, H47R, V54L, S87C, M151V, H170R, L172Q
The test can be described thus: Inhibition of human AKR1C1 using S-tetralol as substrate in presence of NADP by fluorescence method.

Test [4] has as its target T4, Aldo-keto reductase family 1 member C4 (Homo sapiens, UniProt P17516).
T4 sequence (P17516 whole entry): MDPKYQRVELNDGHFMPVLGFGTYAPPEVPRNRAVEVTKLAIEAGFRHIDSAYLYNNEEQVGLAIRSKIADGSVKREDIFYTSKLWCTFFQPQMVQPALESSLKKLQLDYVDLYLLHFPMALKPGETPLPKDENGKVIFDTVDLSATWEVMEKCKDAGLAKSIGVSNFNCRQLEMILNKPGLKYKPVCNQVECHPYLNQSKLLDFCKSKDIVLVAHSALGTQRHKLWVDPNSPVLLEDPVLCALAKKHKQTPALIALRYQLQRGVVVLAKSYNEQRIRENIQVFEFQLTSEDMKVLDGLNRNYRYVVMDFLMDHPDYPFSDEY
Description: Inhibition of human AKR1C4 using S-tetralol as substrate in presence of NADP by fluorescence method.

The target of test [5] is T2, Aldo-keto reductase family 1 member C3. The test can be described thus: Inhibition of human AKR1C3 expressed in Escherichia coli incubated for 30 mins in presence of NADPH regeneration system by UHPLC analysis. The settings on record: for Ki: read-out: Ki.
The target in test [6] is T3, Aldo-keto reductase family 1 member C1. Description: Inhibition of N-terminal His-tagged human AKR1C1 expressed in Escherichia coli BL21 ([…] Plus) competent cells using 9,10-phenanthrenequinone as substrate in presence of NADPH.
Test [7] deals with T1, Aldo-keto reductase family 1 member C2. The test can be described thus: Inhibition of N-terminal His-tagged human AKR1C2 expressed in Escherichia coli BL21 ([…] Plus) competent cells using 9,10-phenanthrenequinone as substrate in presence of NADPH.
The target of test [8] is T2, Aldo-keto reductase family 1 member C3. Description: Inhibition of N-terminal His-tagged human AKR1C3 expressed in Escherichia coli BL21([…] Plus) competent cells using 9,10-phenanthrenequinone as substrate in presence of NADPH.
Test [9] has as its target T5, Androgen receptor (Homo sapiens, UniProt P10275).
T5 sequence (P10275 whole entry): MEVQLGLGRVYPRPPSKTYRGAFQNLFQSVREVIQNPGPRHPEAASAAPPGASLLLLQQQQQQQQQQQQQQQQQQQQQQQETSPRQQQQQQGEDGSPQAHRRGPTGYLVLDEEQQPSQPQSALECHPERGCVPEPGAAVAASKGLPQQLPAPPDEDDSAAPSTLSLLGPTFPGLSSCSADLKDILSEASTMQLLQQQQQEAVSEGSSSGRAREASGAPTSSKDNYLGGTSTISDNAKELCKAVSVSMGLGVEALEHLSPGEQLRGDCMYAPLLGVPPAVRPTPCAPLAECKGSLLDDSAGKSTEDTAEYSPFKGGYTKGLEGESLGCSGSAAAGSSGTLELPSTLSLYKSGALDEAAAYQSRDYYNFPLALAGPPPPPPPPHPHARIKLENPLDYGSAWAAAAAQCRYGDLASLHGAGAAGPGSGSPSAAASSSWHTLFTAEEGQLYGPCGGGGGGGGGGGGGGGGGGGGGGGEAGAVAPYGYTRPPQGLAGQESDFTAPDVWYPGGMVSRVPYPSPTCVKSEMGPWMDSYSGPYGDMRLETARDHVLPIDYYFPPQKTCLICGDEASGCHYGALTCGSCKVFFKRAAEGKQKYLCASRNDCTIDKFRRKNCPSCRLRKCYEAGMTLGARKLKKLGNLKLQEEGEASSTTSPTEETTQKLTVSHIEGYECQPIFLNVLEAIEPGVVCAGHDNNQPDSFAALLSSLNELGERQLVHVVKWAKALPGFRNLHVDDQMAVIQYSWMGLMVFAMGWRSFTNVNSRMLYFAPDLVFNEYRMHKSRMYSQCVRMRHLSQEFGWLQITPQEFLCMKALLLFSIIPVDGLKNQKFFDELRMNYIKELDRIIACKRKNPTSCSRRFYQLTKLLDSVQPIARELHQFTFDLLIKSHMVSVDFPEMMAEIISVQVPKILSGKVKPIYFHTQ
The test can be described thus: Antagonist activity at androgen receptor (unknown origin) expressed in human HeLa cells harboring AR3A-PSA-(ARE)4-Luc13 in presence of DHT by BrightGlo luciferase assay. It is filed as cell-based.

The target of test [10] is T5, Androgen receptor. Description: Displacement of [3H]-R1881 from androgen receptor (unknown origin) expressed in human HeLa cells harboring AR3A-PSA-(ARE)4-Luc13 incubated for 2 hrs by scintillation counting. It is filed as cell-based. On the technique in general: In a radioligand displacement assay an active substance lowers the binding of a labelled ligand.
Test [11] concerns the target T1, Aldo-keto reductase family 1 member C2. The test can be described thus: Inhibition of N-terminal His-tagged human AKR1C2 expressed in Escherichia coli BL21 ([…] Plus) competent cells using 9,10 -Phenanthrenequinone as substrate in presence of NADPH by fluorescence method.
Test [12] concerns the target T6, Aldo-keto reductase family 1 member A1 (Homo sapiens, UniProt P14550).
T6 sequence (P14550 whole entry): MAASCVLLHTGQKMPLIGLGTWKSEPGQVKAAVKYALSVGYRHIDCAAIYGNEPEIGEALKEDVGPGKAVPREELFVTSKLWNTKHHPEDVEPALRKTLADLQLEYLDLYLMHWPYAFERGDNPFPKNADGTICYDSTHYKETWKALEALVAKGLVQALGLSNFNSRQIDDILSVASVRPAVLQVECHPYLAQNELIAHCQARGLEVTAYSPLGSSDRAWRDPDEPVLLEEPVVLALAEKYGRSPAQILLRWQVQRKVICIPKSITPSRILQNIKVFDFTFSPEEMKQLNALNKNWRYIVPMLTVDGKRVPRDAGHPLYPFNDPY
Description: Inhibition of N-terminal His-tagged human AKR1A1 expressed in Escherichia coli BL21 ([…] Plus) competent cells using D,L-glyceraldehyde as substrate in presence of NADPH by fluorescence method.

Test [13] has as its target Aldo-keto reductase family 1 member B10 (Homo sapiens, UniProt O60218). The test can be described thus: Inhibition of N-terminal His-tagged human AKR1B10 expressed in Escherichia coli BL21 ([…] Plus) competent cells using […] as substrate in presence of NADPH by fluorescence method.
In test [14] the target is T3, Aldo-keto reductase family 1 member C1. Description: Inhibition of N-terminal His-tagged human AKR1C1 expressed in Escherichia coli BL21 ([…] Plus) competent cells using 9,10 -Phenanthrenequinone as substrate in presence of NADPH by fluorescence method.
For test [15], the target named is T2, Aldo-keto reductase family 1 member C3. Description: Inhibition of N-terminal His-tagged human AKR1C3 expressed in Escherichia coli BL21 ([…] Plus) competent cells using 9,10 -Phenanthrenequinone as substrate in presence of NADPH by fluorescence method.
Test [16] has as its target T4, Aldo-keto reductase family 1 member C4. Description: Inhibition of N-terminal His-tagged human AKR1C4 expressed in Escherichia coli BL21 ([…] Plus) competent cells using 9,10 -Phenanthrenequinone as substrate in presence of NADPH by fluorescence method.
The target of test [17] is Aldo-keto reductase family 1 member B1 (Homo sapiens, UniProt P15121). The test can be described thus: Inhibition of N-terminal His-tagged human AKR1B1 expressed in Escherichia coli BL21 ([…] Plus) competent cells using D,L-glyceraldehyde as substrate in presence of NADPH by fluorescence method.
Test [18] addresses T2, Aldo-keto reductase family 1 member C3. The test can be described thus: Inhibition of human AKR1C3 expressed in Escherichia coli BL21(DE3) pLysS cells using 9,10-phenanthrenequinone as substrate.
The target is the same in test [19]. The test can be described thus: Inhibition of human AKR1C3 expressed in Escherichia coli BL21(DE3) pLysS cells using S-tetralol as substrate.
For test [20], the target named is T1, Aldo-keto reductase family 1 member C2. The test can be described thus: Inhibition of AKR1C2 (unknown origin) using 9,10-phenanthrenequinone as substrate.
Test [21] concerns the target T3, Aldo-keto reductase family 1 member C1. The test can be described thus: Inhibition of AKR1C1 (unknown origin) using 9,10-phenanthrenequinone as substrate.

In general, IC50 refers to the concentration that gives 50% inhibition. The term Ki denotes a dissociation constant, usually derived from enzyme kinetics or from competition with a known ligand.

Positions count from the first letter of the chain named.

Chain of Aldo-keto reductase family 1 member B10 (O60218 whole entry): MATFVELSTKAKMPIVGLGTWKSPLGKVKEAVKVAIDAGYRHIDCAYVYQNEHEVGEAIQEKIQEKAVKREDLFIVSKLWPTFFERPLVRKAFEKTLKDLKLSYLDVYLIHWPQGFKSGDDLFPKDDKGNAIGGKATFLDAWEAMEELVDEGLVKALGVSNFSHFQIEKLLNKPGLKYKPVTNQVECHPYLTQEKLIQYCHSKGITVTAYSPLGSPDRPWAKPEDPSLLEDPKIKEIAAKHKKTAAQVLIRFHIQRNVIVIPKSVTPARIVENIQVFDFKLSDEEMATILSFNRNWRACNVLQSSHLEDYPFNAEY

As for `CC(=O)c1ccc(Nc2cccc(C(=O)O)c2)c2ccccc12`, the IC50 turned out to be 19.5 µM in test [1], 0.082 µM in [2], 50 µM in test [3] and 17.7 µM in [4].
With `CCC(CO)Nc1nc(NCc2ccccc2)c2ncn(C(C)C)c2n1` (stereo not drawn) [(RS)-ROSCOVITINE], in test [5], the IC50 is 2.15 µM and the Ki is 1.4 µM.
As to `O=C(O)c1cccc(Nc2ccc([N+](=O)[O-])c3c([N+](=O)[O-])cccc23)c1`, the 50% inhibitory concentration (IC50) in test [1] was determined as 15.6 µM; in test [2], 0.053 µM; in test [3], 15.4 µM; in [4] it was 5.34 µM.
In the case of `Cc1ccc(S(=O)(=O)NC(=O)NN2CC3CCCC3C2)cc1` (stereo not given) [GLICLAZIDE], the IC50 is above 300 µM in test [6], above 1000 µM in test [7] and 19.6 µM in [8].
Regarding `COc1ccc2[nH]c(C(=O)N3CCC(CC(C)(C)O)CC3)cc2c1` [ASP-9521], the IC50 in test [9] was 300 µM.
With `CCC1=C(C)CN(C(=O)NCCc2ccc(S(=O)(=O)NC(=O)N[C@H]3CC[C@H](C)CC3)cc2)C1=O` [GLIMEPIRIDE], the IC50 in test [6] is 6.86 µM; in test [7], above 50 µM; in test [8] it was 0.85 µM.
Take `Oc1ccc2c(O)ncc(-c3cc(F)c(F)c(F)c3)c2c1`: the IC50 was found to be 2.1 µM in test [9] and 80 µM in test [10].
In the case of `CCCCCCCCOC(=O)c1cc(O)c(O)c(O)c1` [OCTYL_GALLATE], the IC50 was 9.28 µM in test [11]; above 100 µM in [12]; above 100 µM in test [13]; 5.48 µM in [14]; 2.56 µM in test [15]; 4.04 µM in test [16]. In addition, in test [17], the IC50 was above 100 µM.
`O=C(/C=C/c1ccc(O)c(O)c1)OCCc1ccccc1` [CAFFEIC ACID PHENETHYL ESTER]: the IC50 was 25.8 µM in test [11]; above 50 µM in [12]; 0.39 µM in [13]; 29.2 µM in test [14]; 3.71 µM in [15]; 8.25 µM in test [16]. In test [17], the IC50 was 3.56 µM.
Regarding `CCCCC/C=C\C/C=C\CCCCCCCC(=O)O` [LINOLEIC ACID], the IC50 in test [18] and in [19] was 0.69 µM in each case.
On to `CCCCC/C=C/C/C=C/C/C=C/C/C=C/CCCC(=O)O`, for which the values for the IC50 in [18] and in test [19] were 0.84 µM and 0.69 µM, respectively.
For the compound `O=C(O)c1cccc(Nc2ccc([N+](=O)[O-])c3ccccc23)c1`, the IC50 in [1] was 24.7 µM; in test [2], 0.086 µM; in test [3], 41.3 µM; in [4], 30.6 µM.
With `COc1ccc2c(c1)c(CC(=O)O)c(C)n2C(=O)c1ccc(Cl)cc1` [INDOMETHACIN], the IC50 turned out to be 50 µM in [20] and 96 µM in test [21].
Turning to `CC(C)C(CO)Nc1nc(Nc2cccc(Cl)c2)c2ncn(C(C)C)c2n1` (stereo not given), in [5], the IC50 was determined as 6.58 µM and the Ki turned out to be 5.5 µM.

Source of the values: ChEMBL document CHEMBL4665678, “Overview of AKR1C3: Inhibitor Achievements and Disease Insights” (J Med Chem, 2020).
